Laboratory results published in BindingDB's records for doi:10.1016/S1074-5521(02)00184-9 (The Scripps Research Institute, 2002).

Molecular target: HIV-1 protease (Human immunodeficiency virus, UniProt O90785)
Assay: Inhibition Assay
Settings: pH 5.6; 37 °C
Text: Inhibition of HIV-protease activity for selected acids at P3-P3' positions.

HIV-1 protease, sequence (O90785 whole entry): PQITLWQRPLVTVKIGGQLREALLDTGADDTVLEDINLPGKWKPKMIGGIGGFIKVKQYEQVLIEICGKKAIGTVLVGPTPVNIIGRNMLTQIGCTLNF

Ki [nM]	IC50 [nM]	SMILES
1.5		CC(C)[C@H](NC(=O)OCc1ccccc1)C(=O)N[C@@H](Cc1ccccc1)[C@@H](O)[C@H](O)[C@H](Cc1ccccc1)NC(=O)[C@@H](NC(=O)OCc1ccccc1)C(C)C
	17	CC(C)[C@H](NC(=O)Cc1c[nH]c2ccccc12)C(=O)N[C@@H](Cc1ccccc1)[C@@H](O)[C@H](O)[C@H](Cc1ccccc1)NC(=O)[C@@H](NC(=O)Cc1c[nH]c2ccccc12)C(C)C [P3-P3' Entry 1]
	10	CC(C)[C@H](NC(=O)CCc1c[nH]c2ccccc12)C(=O)N[C@@H](Cc1ccccc1)[C@@H](O)[C@H](O)[C@H](Cc1ccccc1)NC(=O)[C@@H](NC(=O)CCc1c[nH]c2ccccc12)C(C)C [P3-P3' Entry 2]
	14	CC(C)[C@H](NC(=O)CCCc1c[nH]c2ccccc12)C(=O)N[C@@H](Cc1ccccc1)[C@@H](O)[C@H](O)[C@H](Cc1ccccc1)NC(=O)[C@@H](NC(=O)CCCc1c[nH]c2ccccc12)C(C)C [P3-P3' Entry 3]
	19	CC(C)[C@H](NC(=O)c1cc(O)c2ccccc2n1)C(=O)N[C@@H](Cc1ccccc1)[C@@H](O)[C@H](O)[C@H](Cc1ccccc1)NC(=O)[C@@H](NC(=O)c1cc(O)c2ccccc2n1)C(C)C [P3-P3' Entry 4]
	> 50	CCC(C)[C@H](NC(=O)c1ccc2cccc(O)c2n1)C(=O)N[C@@H](Cc1ccccc1)[C@@H](O)[C@H](O)[C@H](Cc1ccccc1)NC(=O)[C@@H](NC(=O)c1ccc2cccc(O)c2n1)C(C)C (stereo partly drawn) [P3-P3' Entry 5]
	10	CC(C)[C@H](NC(=O)c1ccc2ccccc2n1)C(=O)N[C@@H](Cc1ccccc1)[C@@H](O)[C@H](O)[C@H](Cc1ccccc1)NC(=O)[C@@H](NC(=O)c1ccc2ccccc2n1)C(C)C [P3-P3' Entry 6]
	10	CC(C)[C@H](NC(=O)COc1ccc2ccccc2c1)C(=O)N[C@@H](Cc1ccccc1)[C@@H](O)[C@H](O)[C@H](Cc1ccccc1)NC(=O)[C@@H](NC(=O)COc1ccc2ccccc2c1)C(C)C [P3-P3' Entry 7]
2	6	CC(C)[C@H](NC(=O)c1ccc(-c2ccc([N+](=O)[O-])cc2)o1)C(=O)N[C@@H](Cc1ccccc1)[C@@H](O)[C@H](O)[C@H](Cc1ccccc1)NC(=O)[C@@H](NC(=O)c1ccc(-c2ccc([N+](=O)[O-])cc2)o1)C(C)C [P3-P3' Entry 8]
	20	CC(C)[C@H](NC(=O)c1ccc([N+](=O)[O-])o1)C(=O)N[C@@H](Cc1ccccc1)[C@@H](O)[C@H](O)[C@H](Cc1ccccc1)NC(=O)[C@@H](NC(=O)c1ccc([N+](=O)[O-])o1)C(C)C [P3-P3' Entry 9]
	> 50	CC(C)[C@H](NC(=O)c1ccc(-c2c(Cl)cc([N+](=O)[O-])cc2Cl)o1)C(=O)N[C@@H](Cc1ccccc1)[C@@H](O)[C@H](O)[C@H](Cc1ccccc1)NC(=O)[C@@H](NC(=O)c1ccc(-c2c(Cl)cc([N+](=O)[O-])cc2Cl)o1)C(C)C [P3-P3' Entry 10]
	> 50	CC(C)[C@H](NC(=O)c1ccc(-c2cc(C(F)(F)F)ccc2Cl)o1)C(=O)N[C@@H](Cc1ccccc1)[C@@H](O)[C@H](O)[C@H](Cc1ccccc1)NC(=O)[C@@H](NC(=O)c1ccc(-c2cc(C(F)(F)F)ccc2Cl)o1)C(C)C [P3-P3' Entry 11]
	10	CC(C)[C@H](NC(=O)c1ccc(-c2ccc([N+](=O)[O-])cc2[N+](=O)[O-])o1)C(=O)N[C@@H](Cc1ccccc1)[C@@H](O)[C@H](O)[C@H](Cc1ccccc1)NC(=O)[C@@H](NC(=O)c1ccc(-c2ccc([N+](=O)[O-])cc2[N+](=O)[O-])o1)C(C)C [P3-P3' Entry 12]
	10	CC(C)[C@H](NC(=O)c1ccc(C(=O)c2ccccc2)o1)C(=O)N[C@@H](Cc1ccccc1)[C@@H](O)[C@H](O)[C@H](Cc1ccccc1)NC(=O)[C@@H](NC(=O)c1ccc(C(=O)c2ccccc2)o1)C(C)C [P3-P3' Entry 13]
	> 50	CC(C)[C@H](NC(=O)c1ccc(CN2CCCCC2)o1)C(=O)N[C@@H](Cc1ccccc1)[C@@H](O)[C@H](O)[C@H](Cc1ccccc1)NC(=O)[C@@H](NC(=O)c1ccc(CN2CCCCC2)o1)C(C)C [P3-P3' Entry 14]
	> 50	CC(C)[C@H](NC(=O)c1ccc(CN2CCOCC2)o1)C(=O)N[C@@H](Cc1ccccc1)[C@@H](O)[C@H](O)[C@H](Cc1ccccc1)NC(=O)[C@@H](NC(=O)c1ccc(CN2CCOCC2)o1)C(C)C [P3-P3' Entry 15]
	10	CC(C)[C@H](NC(=O)c1ccc(-c2ccc(Cl)cc2)o1)C(=O)N[C@@H](Cc1ccccc1)[C@@H](O)[C@H](O)[C@H](Cc1ccccc1)NC(=O)[C@@H](NC(=O)c1ccc(-c2ccc(Cl)cc2)o1)C(C)C [P3-P3' Entry 16]
